Tests used:
T-cell [1] = experiment: IL-2 secretion from T-cells co-stimulated with anti-CD3 and anti-CD28 antibody (Biological Example 2); format: cell-based, human; details: Homo sapiens, T-cell, primary human total T-cells, baseline = anti-CD3/anti-CD28 stimulated cells without inhibitor, read-out: IL-2 secretion, Anti-CD3/Anti-CD28 stimulation, fold change over baseline; for fold induction at 0.3 µM: 0.3 μM compound; for fold induction at 1 µM: 1 μM compound; for fold induction at 4 µM: 4 μM compound
Summary of the method: (§1)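 No assay protocol given; T-cells stimulated with anti-CD3 alone or anti-CD3 plus anti-CD28, with or without Cbl-b inhibitor. Activation read as IL-2 secretion or CD25 surface staining, expressed as fold over baseline from uninhibited cells […].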

T-cell [2] = experiment: IL-2 secretion from T-cells stimulated with anti-CD3 antibody alone (Biological Example 2); format: cell-based; details: primary human total T-cells, read-out: IL-2 secretion, Anti-CD3 stimulation, fold change over baseline; for fold induction at 1 µM: 1 μM compound; for fold induction at 8 µM: 8 μM compound
Cbl-b [3] = target: T1, Cbl-b (Homo sapiens, UniProt Q13191); experiment: Cbl-b activity assay (Cbl-b inhibition assay), TR-FRET of Cbl-b interaction with UbcH5B-Ub; format: biochemical; details: assay buffer with 100 mM NaCl, 60 nM Src kinase; read-out: Cbl-b activity IC50
Summary of the method: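 TR-FRET readout of Cbl-b binding to Bodipy-fluorescein N-terminally labeled Ub conjugated to UbcH5B C85K, measured with compound present. After compound incubation, 60 nM Src kinase with 1 mM ATP and 5 mM MgCl2 (final) was added for 1.5 h, then a further 1 h incubation; asterisked values used 50 mM NaCl buffer and 30 nM Src.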

Cbl-b [4] = target: T1, Cbl-b; experiment: Cbl-b inhibition assay (Cbl-b activity assay, FRET, Biological Example 1; 100 mM NaCl, 60 nM Src kinase); format: biochemical; details: upper bound stated in text lists; read-out: IC50 values in the Cbl-b inhibition assay of Biological Example 1
Summary of the method: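 Steps: Src kinase phosphorylates N-terminal biotinylated Avi-tagged Cbl-b; phosphorylated Cbl-b binds Bodipy-fluorescein ubiquitin-loaded UbcH5B; streptavidin-terbium on Cbl-b sits close to the fluorescein label, producing FRET. Inhibitors block UbcH5B-Ub binding.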

T-cell [5] = experiment: CD25 cell surface staining on T-cells stimulated with anti-CD3 antibody alone (Biological Example 2); format: cell-based; details: primary human total T-cells, baseline = anti-CD3/anti-CD28 stimulated cells without inhibitor, read-out: CD25 staining, Anti-CD3 stimulation, fold change over baseline; for fold induction at 1 µM: 1 μM compound; for fold induction at 8 µM: 8 μM compound
T-cell [6] = experiment: CD25 cell surface staining on T-cells co-stimulated with anti-CD3 and anti-CD28 antibody (Biological Example 2); format: cell-based, human; details: Homo sapiens, T-cell, primary human total T-cells, baseline = anti-CD3/anti-CD28 stimulated cells without inhibitor, read-out: CD25 staining, Anti-CD3/Anti-CD28 stimulation, fold change over baseline; for fold induction at 0.3 µM: 0.3 μM compound; for fold induction at 1 µM: 1 μM compound; for fold induction at 4 µM: 4 μM compound
Summary of the method: as §1

T1 sequence (Q13191 36-427): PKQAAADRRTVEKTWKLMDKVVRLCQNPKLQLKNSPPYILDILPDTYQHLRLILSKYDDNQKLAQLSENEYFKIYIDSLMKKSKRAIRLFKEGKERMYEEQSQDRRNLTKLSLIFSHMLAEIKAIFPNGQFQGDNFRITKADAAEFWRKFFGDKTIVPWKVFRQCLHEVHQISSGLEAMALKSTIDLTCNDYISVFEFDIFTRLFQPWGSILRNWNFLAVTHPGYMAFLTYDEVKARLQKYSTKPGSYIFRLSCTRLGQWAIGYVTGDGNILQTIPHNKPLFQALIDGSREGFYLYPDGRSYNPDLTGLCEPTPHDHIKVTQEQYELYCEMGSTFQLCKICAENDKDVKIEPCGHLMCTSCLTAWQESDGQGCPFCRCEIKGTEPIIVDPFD

| SMILES | fold induction at 0.3 µM (T-cell [1]) | fold induction at 1 µM (T-cell [1]) | fold induction at 1 µM (T-cell [2]) | IC50 (Cbl-b [3]) | IC50 (Cbl-b [4]) | fold induction at 1 µM (T-cell [5]) | fold induction at 0.3 µM (T-cell [6]) | fold induction at 1 µM (T-cell [6]) | fold induction at 4 µM (T-cell [1]) | fold induction at 8 µM (T-cell [2]) | fold induction at 8 µM (T-cell [5]) | fold induction at 4 µM (T-cell [6]) |
| --- | --- | --- | --- | --- | --- | --- | --- | --- | --- | --- | --- | --- |
| Cc1conc1CC1(c2cccc(NC(=O)c3cc(CN4CC[C@H](O)C4)nc(C4CC4)n3)c2)COC1 [Compound 507, 2-cyclopropyl-6-{[(3S)-3-hydroxypyrrolidin-1-yl]methyl}-N-(3-{3-[(4-methyl-1,2-oxazol-3-yl)methyl]oxetan-3-yl}phenyl)pyrimidine-4-carboxamide] | > 7.5 | > 7.5 | > 0.201 | < 100 nM | ≤ 100 nM | > 1 | 1.31 to 1.5 | 1.31 to 1.5 |  |  |  |  |
| Cn1cnnc1CC1(c2cccc(N3Cc4c(cc(CN5CC[C@H]6C[C@H]65)cc4C(F)(F)F)C3=O)c2)COC1 (single isomer, unassigned) [Compound 486a] | > 7.5 | > 7.5 | > 0.201 | < 100 nM | ≤ 100 nM | > 1 | 1.51 to 1.75 | 1.51 to 1.75 |  |  |  |  |
| Cn1cnnc1CC1(c2cccc(N3Cc4c(cc(C(F)(F)C(=O)O)cc4C(F)(F)F)C3=O)c2)COC1 [Example 544, 2,2-difluoro-2-(2-(3-(3-((4-methyl-4H-1,2,4-triazol-3-yl)methyl)oxetan-3-yl)phenyl)-3-oxo-7-(trifluoromethyl)isoindolin-5-yl)acetic acid] | 1.01 to 2.5 | 1.01 to 2.5 | < 0.05 | 301 to 1000 nM | ≤ 1000 nM | 0.601 to 0.8 | 1.01 to 1.3 | 1.01 to 1.3 |  |  |  |  |
| C[C@H]1C=CCN1Cc1cc2c(c(C(F)(F)F)c1)CN(c1cccc(C3(Cc4nncn4C)COC3)c1)C2=O [Compound 427] | > 7.5 | > 7.5 | > 0.201 | < 100 nM | ≤ 100 nM | > 1 | 1.31 to 1.5 | 1.51 to 1.75 | > 7.5 | > 0.201 | > 1 | 1.51 to 1.75 |
| Cn1cnnc1CC1(c2cccc(N3Cc4c(cc(CN5CCCC(F)(F)CC5)cc4C(F)(F)F)C3=O)c2)COC1 [Compound 528, 6-((4,4-difluoroazepan-1-yl)methyl)-2-(3-(3-((4-methyl-4H-1,2,4-triazol-3-yl)methyl)oxetan-3-yl)phenyl)-4-(trifluoromethyl)isoindolin-1-one] | > 7.5 | > 7.5 | > 0.201 | < 100 nM | ≤ 100 nM | > 1 | 1.01 to 1.3 | 1.01 to 1.3 |  |  |  |  |
| Cn1cnnc1CC1(c2cccc(N3Cc4c(cc(CN5CC(C)(F)C5)cc4C(F)(F)F)C3=O)c2)COC1 [Compound 424, 6-((3-fluoro-3-methylazetidin-1-yl)methyl)-2-(3-(3-((4-methyl-4H-1,2,4-triazol-3-yl)methyl)oxetan-3-yl)phenyl)-4-(trifluoromethyl)isoindolin-1-one] | > 7.5 | > 7.5 | > 0.201 | < 100 nM | ≤ 100 nM | > 1 | 1.31 to 1.5 | 1.51 to 1.75 | > 7.5 | > 0.201 | > 1 | 1.51 to 1.75 |
| Cn1cnnc1[C@H](F)[C@@](C)(F)c1cccc(N2Cc3c(cc(C4CC4)cc3C(F)(F)F)C2=O)c1 (stereo in doubt) [Compound 483, 6-cyclopropyl-2-[3-[(1S,2S)-1,2-difluoro-1-(4-methyl-4H-1,2,4-triazol-3-yl)propan-2-yl]phenyl]-4-(trifluoromethyl)-2,3-dihydro-1H-isoindol-1-one] | < 1 | 1.01 to 2.5 | 0.051 to 0.1 | 100 to 300 nM | ≤ 300 nM | 0.601 to 0.8 | 1.01 to 1.3 | 1.01 to 1.3 | 1.01 to 2.5 | 0.051 to 0.1 | 0.801 to 1 | 1.01 to 1.3 |
| Cn1cnnc1CC1(c2cccc(NC(=O)c3csc(C(F)(F)F)n3)c2)COC1 [Compound 492, N-(3-{3-[(4-methyl-1,2,4-triazol-3-yl)methyl]oxetan-3-yl}phenyl)-2-(trifluoromethyl)-1,3-thiazole-4-carboxamide] | 1.01 to 2.5 | 1.01 to 2.5 | 0.051 to 0.1 | < 100 nM | ≤ 100 nM | 0.601 to 0.8 | 1.01 to 1.3 | 1.01 to 1.3 |  |  |  |  |
| Cc1cc(C(=O)Nc2cccc(C3(Cc4nncn4C)CC(F)(F)C3)c2)nc(C2CC2)n1 [Compound 526, 2-cyclopropyl-N-(3-(3,3-difluoro-1-((4-methyl-4H-1,2,4-triazol-3-yl)methyl)cyclobutyl)phenyl)-6-methylpyrimidine-4-carboxamide] | 5 to 7.5 | > 7.5 | > 0.201 | < 100 nM | ≤ 100 nM | > 1 | 1.01 to 1.3 | 1.01 to 1.3 |  |  |  |  |
| Cn1cnnc1C[C@@]1(c2cccc(N3Cc4c(cc(CN5CCC6(CC6)C5)cc4C(F)(F)F)C3=O)c2)CCOC1 (single isomer, unassigned) [Compound 517a] | 2.51 to 5 | > 7.5 | 0.101 to 0.15 | < 100 nM | ≤ 100 nM | 0.801 to 1 | 1.01 to 1.3 | 1.01 to 1.3 |  |  |  |  |
| Cn1cnnc1CC1(c2cccc(N3Cc4c(cc(CN5CCOCC5)cc4C(F)(F)F)C3=O)c2)COC1 [Compound 431, 2-(3-{3-[(4-methyl-4H-1,2,4-triazol-3-yl)methyl]oxetan-3-yl}phenyl)-6-[(morpholin-4-yl)methyl]-4-(trifluoromethyl)-2,3-dihydro-1H-isoindol-1-one] | 2.51 to 5 | > 7.5 | > 0.201 | < 100 nM | ≤ 100 nM | > 1 | 1.31 to 1.5 | 1.31 to 1.5 |  |  |  |  |
| Cn1cnnc1CC1(c2cccc(N3Cc4c(cc(CN5CC(C)(C#N)C5)cc4C(F)(F)F)C3=O)c2)COC1 [Compound 425, 3-methyl-1-((2-(3-(3-((4-methyl-4H-1,2,4-triazol-3-yl)methyl)oxetan-3-yl)phenyl)-3-oxo-7-(trifluoromethyl)isoindolin-5-yl)methyl)azetidine-3-carbonitrile] | 2.51 to 5 | > 7.5 | 0.151 to 0.2 | < 100 nM | ≤ 100 nM | 0.601 to 0.8 | 1.01 to 1.3 | 1.31 to 1.5 | > 7.5 | 0.051 to 0.1 | < 0.6 | 1.51 to 1.75 |
| C[C@@H](c1cc2c(c(C(F)(F)F)c1)CN(c1cccc(C3(Cc4nncn4C)COC3)c1)C2=O)N1CCC(F)(F)C1 [Compound 420, (S)-6-(1-(3,3-difluoropyrrolidin-1-yl)ethyl)-2-(3-(3-((4-methyl-4H-1,2,4-triazol-3-yl)methyl)oxetan-3-yl)phenyl)-4-(trifluoromethyl)isoindolin-1-one] | 2.51 to 5 | > 7.5 | 0.151 to 0.2 | < 100 nM | ≤ 100 nM | > 1 | 1.31 to 1.5 | 1.31 to 1.5 | > 7.5 | > 0.201 | > 1 | 1.31 to 1.5 |

Source: patent US20220324835A1 (Nurix Therapeutics, Inc., priority 2018, published 2022)
